Measurements published in PubChem BioAssay (NCI).
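Assay format: 96-well plates, 48-hour exposure. Abbreviation: GI50, concentration required for 50% inhibition of growth. TGI marks complete inhibition of growth.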

Legend:
Assay in all cases: NCI anticancer screen, dose series, 48 h
DU-145 prostate = system: DU-145 prostate
PC-3 prostate = system: PC-3 prostate
OVCAR-5 ovarian = system: OVCAR-5 ovarian
SF-539 CNS = system: SF-539 CNS
MOLT-4 leukemia = system: MOLT-4 leukemia
SN12C renal = system: SN12C renal
M14 melanoma = system: M14 melanoma
NCI-H226 lung = system: NCI-H226 lung
SR leukemia = system: SR leukemia
SNB-19 CNS = system: SNB-19 CNS
A549 NSCLC = system: A549 NSCLC
ACHN renal = system: ACHN renal
RPMI-8226 leukemia = system: RPMI-8226 leukemia
HCC-2998 colon = system: HCC-2998 colon
HOP-92 NSCLC = system: HOP-92 NSCLC
SF-268 CNS = system: SF-268 CNS
OVCAR-4 ovarian = system: OVCAR-4 ovarian
UACC-62 melanoma = system: UACC-62 melanoma
CAKI-1 renal = system: CAKI-1 renal
SK-MEL-28 melanoma = system: SK-MEL-28 melanoma
HCT-116 colon = system: HCT-116 colon
HOP-62 NSCLC = system: HOP-62 NSCLC
MDA-MB-231 breast = system: MDA-MB-231 breast
IGROV1 ovarian = system: IGROV1 ovarian
NCI-H460 lung = system: NCI-H460 lung
MCF7 breast = system: MCF7 breast
RXF 393 renal = system: RXF 393 renal
786-0 renal = system: 786-0 renal

O=C1C(Br)=CC2C1C1C3CCC3C2(Br)C12OCCO2 (stereo not given)
TGI (DU-145 prostate): 13.8 µM
GI50 (PC-3 prostate): 3.47 µM
TGI (PC-3 prostate): 19 µM
GI50 (OVCAR-5 ovarian): 2.47 µM
TGI (OVCAR-5 ovarian): 8.91 µM
GI50 (SF-539 CNS): 2.15 µM
TGI (SF-539 CNS): 5.99 µM
GI50 (MOLT-4 leukemia): 3.64 µM
TGI (MOLT-4 leukemia): 10.8 µM
GI50 (SN12C renal): 3.08 µM
TGI (SN12C renal): 15.3 µM
GI50 (M14 melanoma): 4.45 µM
TGI (M14 melanoma): 19.9 µM
GI50 (NCI-H226 lung): 3.55 µM
TGI (NCI-H226 lung): 20.4 µM
GI50 (SR leukemia): 0.721 µM
TGI (SR leukemia): 6.57 µM
GI50 (SNB-19 CNS): 9.65 µM
TGI (SNB-19 CNS): 23 µM
GI50 (A549 NSCLC): 2.29 µM
TGI (A549 NSCLC): 10.9 µM
GI50 (ACHN renal): 2.94 µM
TGI (ACHN renal): 12.2 µM
GI50 (RPMI-8226 leukemia): 1.71 µM
TGI (RPMI-8226 leukemia): 5.76 µM
GI50 (HCC-2998 colon): 6.6 µM
TGI (HCC-2998 colon): 20.5 µM
GI50 (HOP-92 NSCLC): 5.08 µM
TGI (HOP-92 NSCLC): 21.8 µM
GI50 (SF-268 CNS): 2.5 µM
TGI (SF-268 CNS): 15.5 µM
GI50 (OVCAR-4 ovarian): 2.79 µM
TGI (OVCAR-4 ovarian): 14.7 µM
GI50 (UACC-62 melanoma): 2.87 µM
TGI (UACC-62 melanoma): 14.1 µM
GI50 (CAKI-1 renal): 4.1 µM
TGI (CAKI-1 renal): 17.6 µM
GI50 (SK-MEL-28 melanoma): 3.98 µM
TGI (SK-MEL-28 melanoma): 18 µM
GI50 (HCT-116 colon): 2.08 µM
TGI (HCT-116 colon): 10.3 µM
GI50 (HOP-62 NSCLC): 4.25 µM
TGI (HOP-62 NSCLC): 16.5 µM
GI50 (MDA-MB-231 breast): 1.84 µM
TGI (MDA-MB-231 breast): 11.4 µM
GI50 (IGROV1 ovarian): 2.89 µM
TGI (IGROV1 ovarian): 12.7 µM
GI50 (NCI-H460 lung): 2.08 µM
TGI (NCI-H460 lung): 10.2 µM
GI50 (MCF7 breast): 1.98 µM
TGI (MCF7 breast): 12.8 µM
GI50 (RXF 393 renal): 2.64 µM
TGI (RXF 393 renal): 11.6 µM
GI50 (786-0 renal): 4.32 µM
TGI (786-0 renal): 16 µM
